Reference: patent US20090311292A1, “PROCESS FOR SYNTHESIS AND INCORPORATION OF NITRIC OXIDE DONORS IN MACROMOLECULAR COMPOSITIONS” (CRISTALIA PRODUTOS QUIMICOS FARMACEUTICOS LTDA., priority 2006, published 2009)
Values belong to the compound of their own block, whether it stands above or below them.

Key:
[1] = Stability of solid glutathione at 30° C. and 40° C. (UV-visible spectrophotometry after conversion to GSNO); format: physicochemical; conditions: for Content (%) 30 days / Content (%) 70 days / Content (%) 105 days / Content (%) 165 days / Content (%) Initial: solid
Method: Samples of solid glutathione (GSH) were stored in amber glass vials and maintained at temperatures of 30° C. and 40° C. for evaluation of its stability. GSH content in the samples was determined by UV-visible spectrophotometry from the reaction between GSH and NaNO2 in acid medium (aqueous HCl solution, 2.0 mol L^−1) forming GSNO with absorption bands at 336 nm and 545 nm. GSNO formation (0.05 mol L^−1) was quantified by the intensity of the GSNO absorption band at 545 nm.

[2] = Stability of solid GSNO stored at room temperature (absorbance at 336 nm); format: physicochemical; conditions: amber glass vials, room temperature (25° C.)
Method: Samples of solid GSNO were stored in amber glass vials and maintained at room temperature (25° C.) for evaluation of its stability. GSNO content in the samples at day 0, after 48 hours (day 2) and after 5 days was quantified from the absorbance readings of the aqueous solutions 500 μmol L^−1 at 336 nm. […] According to the results, after 48-hours of storage at room temperature, decomposition of approximately 52% of the initial GSNO content occurs.

[3] = Stability of GSNO incorporated in PEO-PPO-PEO matrix (Pluronic F-127) under refrigeration; format: physicochemical; conditions: for Content (%) 30 days / Content (%) 45 days / Content (%) 110 days / Content (%) Initial: 5-8° C.
[4] = 25° C. in the dark, 0.1 to 61.0 mmol L^−1, follow-up 3.5 hours; cited from earlier work
[5] = incorporated in PEO-PPO-PEO gel at 37° C.; cited from earlier work
[6] = system: excisional wound on the back of Wistar rats; experiment: Cutaneous wound healing in an animal model (excisional wound); format: in vivo
Description: 6.1. Acceleration of cutaneous wound healing in an animal model. […] The formulation of freshly prepared GSNO (100 μmol L^−1) was topically applied to the wounds of the animals. Wistar rats (n=10) were housed in individual cages with free access to water. In the first day (Day 0-d0), an excisional wound (2×2 cm) was made on the back of the animals, under general anesthesia. The wound was covered with either pure hydrogel (control animals) or GSNO-containing hydrogel (treated group). Thereafter, the wounds were closed with a dressing. Daily, up to the fourth day after injury, the dressings were removed, and the wounds were gently cleaned with cold saline. The hydrogel (either containing GSNO or not) was applied and the dressing was replaced. From the fifth day after injury on, the wounds were no longer closed with a dressing.
Wound retraction was measured and reepithelization was evaluated histologically. Wound contours were traced in a transparent paper sheet at the day of injury and after 3, 5, 7, 14 and 21 days. The tracing area was determined using image-analysis software (Image-Pro) and the results were expressed as percentages of the initial area. Blood pressure was measured at the beginning and end of the experiments. After euthanasia, a fragment containing the wound and the adjacent healthy skin was removed. The fragments were fixed in formalin solution, processed and embedded in paraffin. The paraffin-embedded specimens were serially sectioned and 5-μm-thick cuts were obtained and stained using the following techniques: hematoxylin-eosin (for overall observation of the tissue fragment), picro-Mallory (for observation of the connective tissue) and picrosirius red (for observation of the collagen fibers). The blood pressure of the control and treated animals was equivalent at the beginning and end of the experiments.

[7] = 50 μmolL^−1 in hydrogel formulation
[8] = 100 μmolL^−1 in hydrogel formulation
[9] = 200 μmolL^−1 in hydrogel formulation
[10] = twenty-one days after injury, superficial and deep areas

time remained stable ([1]; solid form, follow up by UV-visible spectrophotometry): at least 165 days | Content (%) 30 days ([1]; 30° C.): 100 ± 6% | Content (%) 70 days ([1]; 30° C.): 102 ± 6% | Content (%) 105 days ([1]; 30° C.): 103 ± 6% | Content (%) 165 days ([1]; 30° C.): 100 ± 6% | Content (%) Initial ([1]; 30° C.): 100 ± 6% | Content (%) 30 days ([1]; 40° C.): 100 ± 6% | Content (%) 70 days ([1]; 40° C.): 100 ± 6% | Content (%) 105 days ([1]; 40° C.): 99 ± 6% | Content (%) 165 days ([1]; 40° C.): 101 ± 6% | Content (%) Initial ([1]; 40° C.): 100 ± 6%
SMILES: N[C@@H](CCC(=O)N[C@@H](CS)C(=O)NCC(=O)O)C(=O)O [GSH, glutathione]

Content (%) After 2 days [2]: 48 ± 6% | Content (%) After 5 days [2]: 36 ± 6% | Content (%) Initial (day 0) [2]: 100 ± 6% | Content (%) 30 days [3, 7]: 96 ± 6% | Content (%) 45 days [3, 7]: 89 ± 6% | Content (%) 110 days [3, 7]: 85 ± 6% | Content (%) Initial [3, 7]: 100 ± 6% | Content (%) 30 days [3, 8]: 103 ± 6% | Content (%) 45 days [3, 8]: 100 ± 6% | Content (%) 110 days [3, 8]: 80 ± 6% | Content (%) Initial [3, 8]: 100 ± 6% | Content (%) 30 days [3, 9]: 90 ± 6% | Content (%) 45 days [3, 9]: 90 ± 6% | Content (%) 110 days [3, 9]: 85 ± 6% | Content (%) Initial [3, 9]: 100 ± 6% | decrease in relation to the initial GSNO content ([3]; in PEO-PPO-PEO matrix, 50, 100 and 200 μmol L^−1, 110 days at 5-8° C.): about 20%
SMILES: N[C@@H](CCC(=O)N[C@@H](CSN=O)C(=O)NCC(=O)O)C(=O)O [GSNO, S-nitrosoglutathione]
thermal decomposition of aqueous solution [4]: undergo spontaneous thermal decomposition | initial rate of thermal decomposition [5]: 2.3 μmolL^−1 min^−1 | area of wound reepithelization larger compared to the control group ([6]; 7 days after injury): > 77% | wound retraction versus control group ([6]; after 3, 5 and 7 days of injury (p=0.01; p=0.05; p=0.007), GSNO-containing hydrogel 100 μmol L^−1): greater | new epidermis formation compared to the control animals ([6]; after 14 and 21 days of injury): more accentuated | wound contraction in relation to the controls ([6]; after 14 and 21 days of injury): greater | blood pressure of control and treated animals ([6]; beginning and end of the experiments, GSNO 100 μmol L^−1 in Pluronic F-127 hydrogel, topical): equivalent | wound area in control animals larger than in GSNO-treated animals ([6]; fourteen days after injury): 22% | number of microvessels in relation to the control group ([6]; twenty-one days after injury): tendency of increase | total number of mast cells in deep areas of the granulation tissue compared to the control group ([6]; twenty-one days after injury): +384% | wound area in control animals larger than in GSNO-treated animals ([6]; twenty-one days after injury): 20% | inflammatory cells in granulation tissue of control group in comparison to GSNO-treated group [6, 10]: larger number | number of fibroblasts in granulation tissue compared to the control group [6, 10]: increase

SMILES: N[C@@H](CSN=O)C(=O)O [S-nitrosocysteine, reference compound]
thermal decomposition of aqueous solution [4]: undergo spontaneous thermal decomposition

SMILES: CC(=O)N[C@@H](CSN=O)C(=O)O [SNAC, S-nitroso-N-acetylcysteine]
thermal decomposition of aqueous solution [4]: undergo spontaneous thermal decomposition | initial rate of thermal decomposition [5]: 7.2 μmolL^−1 min^−1
